Experimental data from US20240041976A1, “COMPOSITION AND USE” (priority 2020, published 2024).
Read-outs that look alike come from different tables or passages of the source. No end group written: not given here.

Experiments:
[1] = test system: Methicillin-Resistant Staphylococcus aureus; format: in vivo, mice; settings: repeat on larger groups
Procedure: The experiment was performed essentially as set out in Example 2, except that the following regimes as described below, were used.
50-70 μl of cream was applied per wound.
Treatment was daily for 4 days.
The rifampicin/MP1 experiment was repeated on a larger group of mice in each category (8 mice for each of rifampicin, MP1, rifampicin+MP1, 8 mice with APO base cream 30% as used for rifampicin and MP1, 7 mice untreated). Seven mice were also treated with fucidin cream (2% fusidic acid in a cream base) as a positive control.

MRSA ATCC 33591 = assay: microbe, parasite or virus in culture; format: cell-based, Staphylococcus aureus; settings: for MIC: Staphylococcus aureus, 24 h, read-out: MIC, single antimicrobial
Procedure: (§1) Antimicrobial activity was measured using the AAMP assay (Wiegand et al., 2008, Nat. Protoc., Vol. 3(2), p 163-175).
(§2) Synergy testing was done with a microtiter plate checkerboard assay as previously described (Orhan et al., 2005, J. Clin. Microbiol., Vol. 43(1), p 140-143). Briefly, equal amounts of antimicrobial A were applied on microtiter plate 1 in wells A1-H1 and then diluted two-fold to wells 2-12. Similarly, equal amounts of antimicrobial B were applied on microtiter plate 2 in wells A1-A12 and diluted two-fold in wells B-H. Volumes of 50 μl of antimicrobial A from each well of microtiter plate 1 were transferred into microtiter plate 3, except for wells H1-H12. Similarly, the same volumes were transferred from microtiter plate 2 into plate 3, except for wells A1-A8. A 100 μl volume of 25 times diluted ON bacterial culture of MRSA was transferred into each well of plate 3. A 50 μl volume of pure broth was added into each well in lines H1-H12 and A1-A8 which were used to estimate MIC values of pure substances (blank).
(§3) Antimicrobial activity was measured using the AAMP assay as described in Example 2.
(§4) Synergy testing was performed as in Example 2.

[2] = test system: three MRSA strains (ATCC33591-lux, USA-300 and MRSA 43484); assay: AAMP assay and checkerboard synergy, summary; format: cell-based, Staphylococcus aureus; settings: for MIC of the antimicrobial in comb. with GarKS: All three strains; for synergy with GarKS: checkerboard assay
Procedure: as §2, with “Briefly,” for “Synergy testing was done with a microtiter plate checkerboard assay as previously described (Orhan et al., 2005, J. Clin. Microbiol., Vol. 43(1), p 140-143). Briefly,”, “A 100 μl volume of 25 times diluted ON bacterial culture of MRSA was transferred into each well of plate 3.” left out
(§5) Three-component synergy was assessed by mixing the three components (100 μg of PenG, 50 μg of GarKS and 2.5 μg of MP1) into one well of a microtiter plate, compared with activity of individual antimicrobials on the same plate.

[3] = test system: S. pseudintermedius MRSP 45; assay: microbe, parasite or virus in culture; format: cell-based, Staphylococcus pseudintermedius; settings: Staphylococcus pseudintermedius, MRSP45; MRSP 45; 24 h; Table 8; read-out: MIC, single component
Procedure: as §1, §2, §3, §4

S. aureus LMG3328 = assay: AAMP assay (MIC), single components and formulation mixture; format: cell-based, Staphylococcus aureus; settings: Staphylococcus aureus, LMG3328, 24 h; read-out: MIC, single component
Procedure: as §1
as §5, with “plate. The fractional inhibition concentration (FIC) which was used to define synergy was calculated as set forth in Example 1.” for “plate.”

S. aureus LMG3255 = assay: as above; format: cell-based, Staphylococcus aureus; settings: Staphylococcus aureus, LMG3255, 24 h; read-out: MIC, single component
Procedure: as §1
as §5, with “plate. The fractional inhibition concentration (FIC) which was used to define synergy was calculated as set forth in Example 1.” for “plate.”

S. aureus LMG3322 = assay: as above; format: cell-based, Staphylococcus aureus; settings: Staphylococcus aureus, LMG3322, 24 h; read-out: MIC, single component
Procedure: as §1
as §5, with “plate. The fractional inhibition concentration (FIC) which was used to define synergy was calculated as set forth in Example 1.” for “plate.”

S. aureus LMG3271 = assay: as above; format: cell-based, Staphylococcus aureus; settings: Staphylococcus aureus, LMG3271, 24 h; read-out: MIC, single component
Procedure: as §1
as §5, with “plate. The fractional inhibition concentration (FIC) which was used to define synergy was calculated as set forth in Example 1.” for “plate.”

S. aureus LMG3265 = assay: as above; format: cell-based, Staphylococcus aureus; settings: Staphylococcus aureus, LMG3265, 24 h; read-out: MIC, single component
Procedure: as §1
as §5, with “plate. The fractional inhibition concentration (FIC) which was used to define synergy was calculated as set forth in Example 1.” for “plate.”

S. aureus LMG3242 = assay: as above; format: cell-based, Staphylococcus aureus; settings: Staphylococcus aureus, LMG3242, 24 h; read-out: MIC, single component
Procedure: as §1
as §5, with “plate. The fractional inhibition concentration (FIC) which was used to define synergy was calculated as set forth in Example 1.” for “plate.”

S. aureus LMG3264 = assay: as above; format: cell-based, Staphylococcus aureus; settings: Staphylococcus aureus, LMG3264, 24 h; read-out: MIC, single component
Procedure: as §1
as §5, with “plate. The fractional inhibition concentration (FIC) which was used to define synergy was calculated as set forth in Example 1.” for “plate.”

S. aureus LMG3258 = assay: as above; format: cell-based, Staphylococcus aureus; settings: Staphylococcus aureus, LMG3258, 24 h; read-out: MIC, single component
Procedure: as §1
as §5, with “plate. The fractional inhibition concentration (FIC) which was used to define synergy was calculated as set forth in Example 1.” for “plate.”

S. aureus LMG3314 = assay: as above; format: cell-based, Staphylococcus aureus; settings: Staphylococcus aureus, LMG3314, 24 h; read-out: MIC, single component
Procedure: as §1
as §5, with “plate. The fractional inhibition concentration (FIC) which was used to define synergy was calculated as set forth in Example 1.” for “plate.”

S. aureus LMG3266 = assay: as above; format: cell-based, Staphylococcus aureus; settings: Staphylococcus aureus, LMG3266, 24 h; read-out: MIC, single component
Procedure: as §1
as §5, with “plate. The fractional inhibition concentration (FIC) which was used to define synergy was calculated as set forth in Example 1.” for “plate.”

S. aureus LMG3263 = assay: as above; format: cell-based, Staphylococcus aureus; settings: Staphylococcus aureus, LMG3263, 24 h; read-out: MIC, single component
Procedure: as §1
as §5, with “plate. The fractional inhibition concentration (FIC) which was used to define synergy was calculated as set forth in Example 1.” for “plate.”

S. aureus LMG3026 = assay: as above; format: cell-based, Staphylococcus aureus; settings: Staphylococcus aureus, LMG3026, 24 h; read-out: MIC, single component
Procedure: as §1
as §5, with “plate. The fractional inhibition concentration (FIC) which was used to define synergy was calculated as set forth in Example 1.” for “plate.”

S. aureus LMG3307 = assay: as above; format: cell-based, Staphylococcus aureus; settings: Staphylococcus aureus, LMG3307, 24 h; read-out: MIC, single component
Procedure: as §1
as §5, with “plate. The fractional inhibition concentration (FIC) which was used to define synergy was calculated as set forth in Example 1.” for “plate.”

MRSA 43484 = assay: AAMP assay and checkerboard synergy; format: cell-based, Staphylococcus aureus; settings: MRSA 43484; for MIC: Staphylococcus aureus, 24 h, read-out: MIC, single antimicrobial
Procedure: as §1, §2
as §5, with “plate. The fractional inhibition concentration (FIC) which was used to define synergy was calculated as set forth in Example 1.” for “plate.”

MRSA ATCC 33591-lux = assay: AAMP assay and checkerboard synergy; format: cell-based, Staphylococcus aureus; settings: for MIC: Staphylococcus aureus, 24 h, read-out: MIC, single antimicrobial
Procedure: as §1, §2
as §5, with “plate. The fractional inhibition concentration (FIC) which was used to define synergy was calculated as set forth in Example 1.” for “plate.”

MRSA USA-300 = assay: AAMP assay and checkerboard synergy; format: cell-based, Staphylococcus aureus; settings: for MIC: Staphylococcus aureus, 24 h, read-out: MIC, single antimicrobial
Procedure: as §1, §2
as §5, with “plate. The fractional inhibition concentration (FIC) which was used to define synergy was calculated as set forth in Example 1.” for “plate.”

E. faecium LMGT 3104 = assay: microbe, parasite or virus in culture; format: cell-based, Enterococcus faecium
Procedure: as §1, §2, §3, §4

Compound	MIC of MP1 in comb. with the labelled antimicrobial (MRSA ATCC 33591)	MIC of the labelled antimicrobial in comb. with MP1 (MRSA ATCC 33591)	MIC (MRSA ATCC 33591)	MIC of the antimicrobial in comb. with GarKS [2]	synergy with GarKS [2]	MIC [3]	MIC (S. aureus LMG3328)	MIC (S. aureus LMG3255)	MIC (S. aureus LMG3322)	MIC (S. aureus LMG3271)	MIC (S. aureus LMG3265)	MIC (S. aureus LMG3242)	MIC (S. aureus LMG3264)	MIC (S. aureus LMG3258)	MIC (S. aureus LMG3314)	MIC (S. aureus LMG3266)	MIC (S. aureus LMG3263)	MIC (S. aureus LMG3026)	MIC (S. aureus LMG3307)	MIC of the antimicrobial in comb. with GarKS (MRSA 43484)	other results
CO[C@H]1/C=C/O[C@@]2(C)Oc3c(C)c(O)c4c(O)c(c(/C=N/N5CCN(C)CC5)c(O)c4c3C2=O)NC(=O)/C(C)=C\C=C\[C@H](C)[C@H](O)[C@@H](C)[C@@H](O)[C@@H](C)[C@H](OC(C)=O)[C@@H]1C [Rifampicin]	0.08 µg/mL	1.5 µg/mL	> 100 µg/mL	–	–	–	–	–	–	–	–	–	–	–	–	–	–	–	–	–	duration of the antimicrobial effect [1]: less than 48 hours
O=C(N[C@H](CO)[C@H](O)c1ccc([N+](=O)[O-])cc1)C(Cl)Cl [Cam, Chloramphenicol]	0.08 µg/mL	8 µg/mL	62 µg/mL	32 to 64 µg/mL	no synergy or only additive effects	62 µg/mL	8 µg/mL	16 µg/mL	8 µg/mL	16 µg/mL	32 µg/mL	8 µg/mL	16 µg/mL	16 µg/mL	8 µg/mL	32 µg/mL	32 µg/mL	8 µg/mL	8 µg/mL	64 µg/mL	MIC ([2]; Staphylococcus aureus, 24 h, read-out: MIC, single antimicrobial, All three strains): 16 to 125 µg/mL; MIC (MRSA 43484): 16 µg/mL; MIC of the antimicrobial in comb. with GarKS (MRSA ATCC 33591-lux; MRSA ATCC 33591-lux): 32/32 μg/ml; MIC (MRSA ATCC 33591-lux): 125 µg/mL; MIC of the antimicrobial in comb. with GarKS (MRSA USA-300; MRSA USA-300): 64 µg/mL; MIC (MRSA USA-300; MRSA): 125 µg/mL
MKFKFNPTGTIVKKLTQYEIAWFKNKHGYYPWEIPRC [EntK1]	–	–	–	–	–	–	–	–	–	–	–	–	–	–	–	–	–	–	–	–	MIC of MP1 in comb. with the labelled antimicrobial (E. faecium LMGT 3104): 0.02 µg/mL; MIC of the labelled antimicrobial in comb. with MP1 (E. faecium LMGT 3104): 0.4 µg/mL; MIC, single antimicrobial (E. faecium LMGT 3104): >250 µg/mL
[H]/N=C(/N)N[C@H]1[C@H](O)[C@@H](O)[C@H](O[C@@H]2O[C@@H](C)[C@](O)(C=O)[C@H]2O[C@@H]2O[C@@H](CO)[C@H](O)[C@@H](O)[C@@H]2NC)[C@@H](N/C(N)=N\[H])[C@@H]1O [Str, Streptomycin]	–	–	–	32 µg/mL	moderate synergy with GarKS only against two MRSA out of three	> 2500 µg/mL	62 µg/mL	125 µg/mL	62 µg/mL	125 µg/mL	31 µg/mL	250 µg/mL	> 250 µg/mL	62 µg/mL	62 µg/mL	> 125 µg/mL	31 µg/mL	31 µg/mL	62 µg/mL	32 µg/mL	MIC (MRSA 43484): 62 µg/mL; MIC of the antimicrobial in comb. with GarKS (MRSA ATCC 33591-lux; MRSA ATCC 33591-lux): 32 µg/mL; MIC, single antimicrobial (MRSA ATCC 33591-lux; MRSA ATCC 33591-lux): >2500 µg/mL; MIC (MRSA ATCC 33591-lux; MRSA ATCC 33591-lux): > 2500 µg/mL; MIC of the antimicrobial in comb. with GarKS (MRSA USA-300; MRSA USA-300): 32 µg/mL; MIC (MRSA USA-300; MRSA USA-300): 62 µg/mL
